Laboratory results reported in ChEMBL document CHEMBL1135457 (J Med Chem, 2002).

What was measured:
Estrogen receptor beta = Estrogen receptor beta (Homo sapiens, UniProt Q92731); assay: Displacement of radioligand from human Estrogen receptor beta, percent inhibition at 10 uM
Glucocorticoid receptor = molecular target: T1, Glucocorticoid receptor (Homo sapiens, UniProt P04150); assay: Displacement of 10 nM [3H]dexamethasone from human Glucocorticoid receptor
T1 sequence (P04150 whole entry): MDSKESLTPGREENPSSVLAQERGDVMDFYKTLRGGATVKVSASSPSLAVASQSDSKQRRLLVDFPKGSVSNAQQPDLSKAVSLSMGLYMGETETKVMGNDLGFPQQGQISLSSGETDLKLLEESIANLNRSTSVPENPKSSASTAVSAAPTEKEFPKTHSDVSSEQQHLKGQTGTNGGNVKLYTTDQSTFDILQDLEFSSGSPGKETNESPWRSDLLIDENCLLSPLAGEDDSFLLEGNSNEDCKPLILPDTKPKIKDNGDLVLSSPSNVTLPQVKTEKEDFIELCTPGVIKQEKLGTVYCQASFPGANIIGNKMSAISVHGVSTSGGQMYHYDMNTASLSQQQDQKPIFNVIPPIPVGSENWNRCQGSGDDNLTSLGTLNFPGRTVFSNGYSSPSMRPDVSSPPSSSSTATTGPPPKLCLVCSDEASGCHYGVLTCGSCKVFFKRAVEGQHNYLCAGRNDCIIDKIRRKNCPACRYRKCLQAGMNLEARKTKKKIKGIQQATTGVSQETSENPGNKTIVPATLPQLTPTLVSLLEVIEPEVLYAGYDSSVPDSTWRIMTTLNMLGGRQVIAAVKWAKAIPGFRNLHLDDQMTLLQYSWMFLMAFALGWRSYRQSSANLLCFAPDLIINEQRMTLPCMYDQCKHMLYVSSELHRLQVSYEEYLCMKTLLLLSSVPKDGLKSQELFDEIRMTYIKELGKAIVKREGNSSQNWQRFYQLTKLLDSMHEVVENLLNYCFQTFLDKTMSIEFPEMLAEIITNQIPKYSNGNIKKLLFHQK

[1] = molecular target: T2, Estrogen receptor (Homo sapiens) (UniProt P03372); assay: Displacement of radioligand from human Estrogen receptor alpha, percent inhibition at 10 uM
T2 sequence (whole entry): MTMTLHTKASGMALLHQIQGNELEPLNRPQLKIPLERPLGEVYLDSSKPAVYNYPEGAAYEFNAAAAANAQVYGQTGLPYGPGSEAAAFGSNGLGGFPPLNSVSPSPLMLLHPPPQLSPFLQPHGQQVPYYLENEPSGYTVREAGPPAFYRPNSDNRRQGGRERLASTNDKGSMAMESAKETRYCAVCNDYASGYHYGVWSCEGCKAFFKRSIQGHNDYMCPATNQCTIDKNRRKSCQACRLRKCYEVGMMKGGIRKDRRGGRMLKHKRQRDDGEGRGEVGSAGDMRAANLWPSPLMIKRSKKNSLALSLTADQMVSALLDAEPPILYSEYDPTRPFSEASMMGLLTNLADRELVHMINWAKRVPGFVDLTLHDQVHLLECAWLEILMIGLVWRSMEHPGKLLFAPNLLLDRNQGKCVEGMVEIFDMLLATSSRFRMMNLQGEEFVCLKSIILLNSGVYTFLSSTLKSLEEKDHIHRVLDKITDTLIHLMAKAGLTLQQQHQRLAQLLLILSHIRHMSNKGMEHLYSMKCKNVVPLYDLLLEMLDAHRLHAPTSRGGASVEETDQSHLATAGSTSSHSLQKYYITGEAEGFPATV

Progesterone receptor = molecular target: T3, Progesterone receptor (Homo sapiens, UniProt P06401); assay: Displacement of radioligand from human Progesterone receptor
T3 sequence (P06401 whole entry): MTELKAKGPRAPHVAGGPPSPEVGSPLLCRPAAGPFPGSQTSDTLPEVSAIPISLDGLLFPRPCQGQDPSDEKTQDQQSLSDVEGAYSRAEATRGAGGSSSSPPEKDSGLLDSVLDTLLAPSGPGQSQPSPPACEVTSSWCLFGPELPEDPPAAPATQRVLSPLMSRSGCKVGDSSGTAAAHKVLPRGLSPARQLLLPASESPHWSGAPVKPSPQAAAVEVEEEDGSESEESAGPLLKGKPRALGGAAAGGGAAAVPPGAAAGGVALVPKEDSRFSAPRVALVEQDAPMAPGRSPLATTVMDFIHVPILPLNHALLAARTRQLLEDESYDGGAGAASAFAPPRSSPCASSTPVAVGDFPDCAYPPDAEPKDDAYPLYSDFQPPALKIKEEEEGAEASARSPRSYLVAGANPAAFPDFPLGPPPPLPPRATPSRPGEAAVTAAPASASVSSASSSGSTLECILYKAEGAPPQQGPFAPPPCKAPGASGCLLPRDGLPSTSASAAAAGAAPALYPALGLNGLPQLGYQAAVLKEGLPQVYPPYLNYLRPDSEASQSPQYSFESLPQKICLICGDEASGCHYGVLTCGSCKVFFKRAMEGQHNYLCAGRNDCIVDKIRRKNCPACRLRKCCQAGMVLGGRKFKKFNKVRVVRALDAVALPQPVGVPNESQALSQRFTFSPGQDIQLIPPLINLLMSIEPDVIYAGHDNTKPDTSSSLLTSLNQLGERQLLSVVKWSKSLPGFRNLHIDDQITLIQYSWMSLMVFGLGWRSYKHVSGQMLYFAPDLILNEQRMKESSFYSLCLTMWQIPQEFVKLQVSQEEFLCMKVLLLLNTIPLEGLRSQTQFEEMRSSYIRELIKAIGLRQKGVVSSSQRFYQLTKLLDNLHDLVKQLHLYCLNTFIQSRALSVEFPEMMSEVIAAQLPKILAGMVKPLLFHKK

Chain of Estrogen receptor beta (Q92731 whole entry): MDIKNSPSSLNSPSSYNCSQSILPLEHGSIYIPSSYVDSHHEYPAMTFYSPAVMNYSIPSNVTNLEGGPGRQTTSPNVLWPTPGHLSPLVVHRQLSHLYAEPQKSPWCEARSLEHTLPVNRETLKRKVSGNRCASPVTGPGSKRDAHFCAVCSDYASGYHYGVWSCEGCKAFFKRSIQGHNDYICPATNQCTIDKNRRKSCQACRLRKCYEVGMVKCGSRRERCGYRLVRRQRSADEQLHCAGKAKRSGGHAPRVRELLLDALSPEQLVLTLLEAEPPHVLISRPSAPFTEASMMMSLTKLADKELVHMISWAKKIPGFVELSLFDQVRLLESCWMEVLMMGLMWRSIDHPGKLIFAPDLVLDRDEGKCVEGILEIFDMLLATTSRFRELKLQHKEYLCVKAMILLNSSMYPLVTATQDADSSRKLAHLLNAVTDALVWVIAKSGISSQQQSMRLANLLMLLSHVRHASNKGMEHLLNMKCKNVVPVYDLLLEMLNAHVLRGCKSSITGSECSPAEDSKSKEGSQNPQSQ

inhibition (Estrogen receptor beta) | Ki (Progesterone receptor) | SMILES | Ki (Glucocorticoid receptor) | inhibition [1]
57% | > 10000 nM | CC#C[C@@]1(O)CC[C@@]2(Cc3ccccc3)c3ccc(O)cc3CC[C@@H]2C1 | 0.17 nM | 50%
54% | > 10000 nM | O=C1CC[C@@]2(Cc3ccccc3)c3ccc(O)cc3CC[C@@H]2C1 | 5.96 nM | 45%
– | – | CC#C[C@]1(O)CCC2C3CCC4=CC(=O)CC[C@]4(Cc4ccc(C)cc4)C3=CC[C@@]21C (some centres undefined) | 0.1 nM | 20%

SMILES | inhibition (Estrogen receptor beta) | Ki (Progesterone receptor) | Ki (Glucocorticoid receptor) | inhibition [1]
Oc1ccc2c(c1)CC[C@@H]1C[C@@](O)(C#CCl)CC[C@@]21Cc1ccccc1 | 75% | > 10000 nM | 0.1 nM | 62%
